According to patent US9388136B2, “Tert-butyl N-[2-{4-[6-amino-5-(2,4-difluorobenzoyl)-2-oxopyridin-1(2H)-yl]-3,5-difluorophenyl}ethyl]-L-alaninate or a salt, hydrate or solvate thereof” (Chroma Therapeutics Ltd., priority 2012, dated 2016):
Like-named read-outs stand apart in the source and are kept apart here.

Columns and labels:
human whole blood = experiment: LPS-stimulation of human whole blood, TNF-α levels by ELISA; format: cell-based; conditions: for IC50: LPS 100 ng/ml, 6 hrs, read-out: D—ester TNF-alpha inhibition (human whole blood), IC50
Procedure: Whole blood was taken by venous puncture using heparinised vacutainers (Becton Dickinson) and diluted in an equal volume of RPMI1640 tissue culture media (Sigma). 100 μl was plated in V-bottomed 96 well tissue culture treated plates. 2 hrs after the addition of the inhibitor in 100 μl of RPMI1640 media, the blood was stimulated with LPS (E coli strain 005:B5, Sigma) at a final concentration of 100 ng/ml and incubated at 37° C. in 5% CO2 for 6 hrs. TNF-α levels were measured from cell-free supernatants by sandwich ELISA (R&D Systems #QTA00B).

THP-1 cells = experiment: LPS-stimulation of THP-1 cells, TNF-α levels by ELISA; format: cell-based; conditions: LPS 1 μg/ml, 6 hrs, read-out: C—ester TNF-alpha inhibition (THP-1 cells), IC50
Procedure: THP-1 cells were plated in 100 μl at a density of 4×10^4 cells/well in V-bottomed 96 well tissue culture treated plates and incubated at 37° C. in 5% CO2 for 16 hrs. 2 hrs after the addition of the inhibitor in 100 μl of tissue culture media, the cells were stimulated with LPS (E coli strain 005:B5, Sigma) at a final concentration of 1 μg/ml and incubated at 37° C. in 5% CO2 for 6 hrs. TNF-α levels were measured from cell-free supernatants by sandwich ELISA (R&D Systems #QTA00B).

p38 MAP Kinase a = p38 MAP Kinase a (Homo sapiens (Human), UniProt Q16539); experiment: p38 MAP kinase enzyme assay (radiometric filter-binding); format: biochemical
Procedure: The ability of compounds to inhibit p38 MAP a Kinase activity was measured in an assay performed by Upstate (Dundee UK). In a final reaction volume of 25 μL, p38 MAP Kinase a (5-10 mU) is incubated with 25 mM Tris pH 7.5, 0.002 mMEGTA, 0.33 mg/mL myelin basic protein, 10 mM MgAcetate and [g-33p-ATP] (specific activity approx. 500 cpm/pmol, concentration as required). The reaction is initiated by the addition of the MgATP mix. After incubation for 40 minutes at room temperature, the reaction is stopped by the addition of 5 μL of a 3% phosphoric acid solution. 10 μL of the reaction is then spotted onto a P30 filtermat and washed three times for 5 minutes in 75 mM phosphoric acid and once in methanol prior to drying and scintillation counting.
Duplicate data points are generated from a 1/3 log dilution series of a stock solution in DMSO. Nine dilutions steps are made from a top concentration of 10 μM, and a ‘no compound’ blank is included. The standard radiometric filter-binding assay is performed at an ATP concentration at, or close to, the Km. Data from scintillation counts are collected and subjected to free-fit analysis by Prism software.

[1] = corresponding acid (hydrolysis product of the named ester) tested, read-out: B—acid enzyme assay (p38 kinase A (invitrogen)), IC50
[2] = ester tested, read-out: A—ester enzyme assay (p38 kinase A (invitrogen)), IC50

Chain of p38 MAP Kinase a (Q16539 whole entry): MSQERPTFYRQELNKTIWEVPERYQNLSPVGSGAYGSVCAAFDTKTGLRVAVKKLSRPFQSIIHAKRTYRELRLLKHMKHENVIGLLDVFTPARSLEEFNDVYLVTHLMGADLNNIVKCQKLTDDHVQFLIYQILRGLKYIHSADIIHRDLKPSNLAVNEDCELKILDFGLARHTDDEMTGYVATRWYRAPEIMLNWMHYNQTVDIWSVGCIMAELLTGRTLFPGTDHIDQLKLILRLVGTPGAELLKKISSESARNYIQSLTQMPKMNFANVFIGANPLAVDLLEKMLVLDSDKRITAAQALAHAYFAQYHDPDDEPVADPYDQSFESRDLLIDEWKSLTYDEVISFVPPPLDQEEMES

Row | IC50 (human whole blood; Homo sapiens) [nM] | IC50 (THP-1 cells; Homo sapiens, THP-1) [nM] | IC50 (p38 MAP Kinase a; [1]) [nM] | IC50 (p38 MAP Kinase a; [2]) [nM] | IC50 (human whole blood) [nM] | IC50 (THP-1 cells) [nM] | SMILES | D—ester TNF-alpha inhibition (human whole blood), % at single concentration (human whole blood; @ 10 μm) [% @ 10 μm]
1 | 179 | 4.2 | 2 | 81 |  |  | CC(C)C[C@H](NCCCCCOc1cc(F)c(-n2c(N)c(C(=O)c3ccc(F)cc3F)ccc2=O)c(F)c1)C(=O)OC1CCCC1 [Cyclopentyl N-(5-{4-[6-amino-5-(2,4-difluorobenzoyl)-2-oxopyridin-1(2H)-yl]-3,5 - difluorophenoxy}pentyl)-L-leucinate] | 
2 |  | 6 |  |  |  |  | Nc1c(C(=O)c2ccc(F)cc2F)ccc(=O)n1-c1c(F)cc(OCCCN[C@@H](C(=O)OC2CCCC2)c2ccccc2)cc1F [Cyclopentyl (2R)-[(3-{4-[6-amino-5-(2,4-difluorobenzoyl)-2-oxopyridin-1(2H)-yl]-3,5-difluorophenoxy}propyl)amino] (phenyl)acetate] | 
3 | 947 | 19 | 118 | 724 |  |  | CC(C)C[C@H](NCCc1ccc(-n2c(N)c(C(=O)c3ccc(F)cc3)ccc2=O)cc1)C(=O)OC(C)(C)C [tert-Butyl N-[2-(4-{6-amino-5-[(4-fluoro-phenyl)carbonyl]-2-oxopyridin-1(2H)-yl}phenyl)ethyl]-L-leucinate] | 
4 | 148 | 0.5 | 1 | 65 |  |  | Nc1c(C(=O)c2ccc(F)cc2F)ccc(=O)n1-c1c(F)cc(CCN[C@H](C(=O)OC2CCCC2)c2ccccc2)cc1F [Cyclopentyl (2S)-[(2-{4-[6-amino-5-(2,4-difluorobenzoyl)-2-oxopyridin-1(2H)-yl]-3,5-difluorophenyl}ethyl)amino] (phenyl)acetate] | 
5 | 594 | 10.7 |  |  |  |  | CC(C)C[C@H](NCCCOc1cc(F)c(-n2c(N)c(C(=O)c3ccc(F)cc3F)ccc2=O)c(F)c1)C(=O)OC1CCCC1 [Cyclopentyl (S)-2-(3-{4-[6-Amino-5-(2,4-difluorobenzoyl)-2-oxo-2H-pyridin-1-yl]-3,5-difluoro-phenoxy}propyl-amino)-4-methyl pentanoate] | 
6 | 779 | 2 |  |  |  |  | CC(C)(C)OC(=O)[C@@H](NCCc1cc(F)c(-n2c(N)c(C(=O)c3ccc(F)cc3F)ccc2=O)c(F)c1)c1ccccc1 [tert-butyl (2S)-[(2-{4-[6-amino-5-(2,4-difluoro-benzoyl)-2-oxopyridin-1(2H)-yl]-3,5-difluorophenyl}ethyl)amino] (phenyl)acetate] | 
7 | 190 | 0.9 | 1 | 12 |  |  | CC(C)C[C@H](NCCc1cc(F)c(-n2c(N)c(C(=O)c3ccc(F)cc3)ccc2=O)c(F)c1)C(=O)OC1CCCC1 [Cyclopentyl N-(2-{4-[6-amino-5-(4-fluoro-benzoyl)-2-oxopyridin-1(2H)-yl]-3,5-difluorophenyl}ethyl)-L-leucinate] | 
8 |  | 81 | 2 | 167 |  |  | CC(C)C[C@@H](NCCc1cc(F)c(-n2c(N)c(C(=O)c3ccc(F)cc3F)ccc2=O)c(F)c1)C(=O)OC(C)(C)C [tert-butyl N-(2-{4-[6-amino-5-(2,4-difluoro-benzoyl)-2-oxopyridin-1(2H)-yl]-3,5-difluoro-phenyl}ethyl)-D-leucinate] | 0
9 | 1250 | 29 | 2 | 73 |  |  | CC(C)C[C@H](NCCCCCOc1cc(F)c(-n2c(N)c(C(=O)c3ccc(F)cc3F)ccc2=O)c(F)c1)C(=O)OC(C)(C)C [tert-Butyl N-(5-{4-[6-amino-5-(2,4-difluoro-benzoyl)-2-oxopyridin-1(2H)-yl]-3,5-difluorophenoxy}pentyl)-L-leucinate] | 
10 |  |  |  | 47 | 4110 | 21 | Nc1c(C(=O)c2ccc(F)cc2F)ccc(=O)n1-c1c(F)cc(CCN[C@@H](C(=O)OC2CCCC2)c2ccccc2)cc1F [Cyclopentyl (2R)-[(2-{4-[6-amino-5-(2,4-difluoro-benzoyl)-2-oxopyridin-1(2H)-yl]-3,5-difluorophenyl}ethyl)amino] (phenyl)acetate] | 
11 | 638 | 2.4 | 58 | 330 |  |  | CC(C)C[C@H](NCCc1ccc(-n2c(N)c(C(=O)c3ccc(F)cc3F)ccc2=O)cc1)C(=O)OC(C)(C)C [tert-Butyl N-[2-(4-{6-amino-5-[(2,4-difluoro-phenyl)carbonyl]-2-oxopyridin-1(2H)-yl}phenyl)ethyl]-L-leucinate] | 
12 | 5180 | 8.4 |  | 22 |  |  | CC(C)[C@H](NCCc1cc(F)c(-n2c(N)c(C(=O)c3ccc(F)cc3F)ccc2=O)c(F)c1)C(=O)OC1CCCC1 [Cyclopentyl N-[2-(4-{6-amino-5-[(2,4-difluoro-phenyl)carbonyl]-2-oxopyridin-1(2H)-yl}-3,5 difluorophenyl)ethyl]-L-valinate] | 
13 | 935 | 0.4 |  |  |  |  | CC(C)C[C@H](NCCCOc1cc(F)c(-n2c(N)c(C(=O)c3ccc(F)cc3F)ccc2=O)c(F)c1)C(=O)OCCN1CCOCC1 [2-Morpholin-4-ylethyl N-(3-{4-[6-amino-5-(2,4-difluorobenzoyl)-2-oxopyridin-1(2H)-yl]-3,5-difluoro-phenoxy}propyl)-L-leucinate] | 
14 | 508 | 5.3 |  |  |  |  | Nc1c(C(=O)c2ccc(F)cc2F)ccc(=O)n1-c1c(F)cc(OCCCN[C@H](C(=O)OC2CCCC2)c2ccccc2)cc1F [Cyclopentyl (S)-(3-{4-[6-Amino-5-(2,4-difluorobenzoyl)-2-oxo-2H-pyridin-1-yl]-3,5-difluoro-phenoxy}propylamino) phenyl acetate] | 
15 | 195 | 2.8 | 58 | 58 |  |  | C[C@H](NCCc1ccc(-n2c(N)c(C(=O)c3ccc(F)cc3F)ccc2=O)cc1)C(=O)OC(C)(C)C [tert-butyl N-[2-(4-{6-amino-5-[(2,4-difluoro-phenyl)carbonyl]-2-oxopyridin-1(2H)-yl}phenyl)ethyl]-L-alaninate] | 
16 | 1200 | 1.8 | 56 | 68 |  |  | C[C@@H](O)[C@H](NCCc1ccc(-n2c(N)c(C(=O)c3ccc(F)cc3F)ccc2=O)cc1)C(=O)OC1CCCC1 [Cyclopentyl N-[2-(4-{6-amino-5-[(2,4-difluoro-phenyl)carbonyl]-2-oxopyridin-1(2H)-yl}phenyl)ethyl]-L-threoninate] | 
17 |  | 83 | 1 | 72 |  |  | CC(C)(C)OC[C@H](NCCc1cc(F)c(-n2c(N)c(C(=O)c3ccc(F)cc3F)ccc2=O)c(F)c1)C(=O)OC(C)(C)C [tert-butyl N-(2-{4-[6-amino-5-(2,4-difluoro-benzoyl)-2-oxopyridin-1(2H)-yl]-3,5-difluorophenyl}ethyl)-O-tert-butyl-L-serinate] | 
18 |  | 38 |  |  |  |  | Nc1c(C(=O)c2ccc(F)cc2)ccc(=O)n1-c1c(F)cc(OCCCN[C@H](C(=O)OC2CCCC2)c2ccccc2)cc1F [Cyclopentyl (S)-(3-{4-[6-Amino-5-(4-fluorobenzoyl)-2-oxo-2H-pyridin-1-yl]-3,5-difluoro-phenoxy}propylamino) phenylacetate] | 
19 |  | 8.6 |  | 28 |  |  | CCOC(=O)[C@H](CC(C)C)NCCCOc1cc(F)c(-n2c(N)c(C(=O)c3ccc(F)cc3)ccc2=O)c(F)c1 [Ethyl N-(3-{4-[6-amino-5-(4-fluoro-benzoyl)-2-oxopyridin-1(2H)-yl]-3,5-difluorophenoxy}propyl)-L-leucinate] | 
20 | 479 | 22 | 5 | 1 |  |  | NCC[C@H](NCCCOc1cc(F)c(-n2c(N)c(C(=O)c3ccc(F)cc3F)ccc2=O)c(F)c1)C(=O)OC1CCCC1 [Cyclopentyl (2S)-4-amino-2-[(3-{4-[6-amino-5-(2,4-difluoro-benzoyl)-2-oxopyridin-1(2H)-yl]-3,5-difluoro-phenoxy}propyl)amino]butanoate] | 
21 | 4270 | 76.1 |  |  |  |  | CC(C)C[C@H](NCCCOc1cc(F)c(-n2c(N)c(C(=O)c3ccc(F)cc3F)ccc2=O)c(F)c1)C(=O)OC(C)(C)C [tert-Butyl (S)-2-(3-{4-[6-Amino-5-(2,4-difluorobenzoyl)-2-oxo-2H-pyridin-1-yl]-3,5-difluoro-phenoxy}propyl-amino)-4-methyl pentanoate] | 
